86 molecules from a melting point compilation (Tetko et al.; mined from patent text by program, amines drawn as free bases though some values may be those of a salt) can be followed below.

Where only a bound is given, the exact number is not on record here.

In general, melting point refers to the temperature of the solid-liquid transition.

Consider `CCCc1c(OCCCOc2cccc(NC(=O)C(=O)O)c2C)ccc(C(C)=O)c1O`, for which the melting point lay within 146 to 148 °C.

`COc1cc(OCc2ccccn2)ccc1/C=C/c1cc(/C=C/c2cc3ccccc3o2)n[nH]1` gave a melting point of 199 to 201 °C. The result for `CN(C)c1cc2c(cc1C(F)(F)F)NC(=O)CC(c1ccnc(C#N)c1)=N2` reads 248 °C; that for `COC(=O)c1cc(C2CCCO2)c(C(F)(F)F)cc1N` (stereo unspecified), 131 to 136 °C; that for `Cc1cccc(Cn2cc(C(=O)C(=O)NC3=CC(=O)OC3)c3ccccc32)c1`, 298 to 300 °C. The result for `Cc1nnc(-c2ccnc(NC(=O)NCc3ccccn3)c2)o1` reads 202 to 203 °C. The molecule `O=C(Nc1ccc(Oc2ccc(Cl)cc2)cc1)N1CC(c2ccccc2)=C(c2ccc(Cl)cc2)N1` gave a melting point of 158 to 161 °C. Then `CN(C)Cc1ccc(C=CC(=O)N2CCc3c([nH]c4ccccc34)C2c2ccc3c(c2)CCO3)cn1` (stereo unspecified), with 163 °C; and `Cc1ccc(C(=O)Nc2ccc(-n3ccnc3C)cc2C(F)(F)F)cc1Nc1nccc(-c2cccnc2)n1`, with 154 to 163 °C; and `Cc1ccc(S(=O)(=O)N2[C@@H](CCc3ncnn3C)CC[C@H]2c2ccc(F)cc2)cc1` (racemic), with 145 °C.

The molecule `C[C@H](Cn1cccn1)n1cnc2cc3c(=O)n([C@H](C)Cn4cc(Cl)cn4)cnc3cc2c1=O` had a melting point of 231 to 232 °C. Then `O=C1CC(NC(=O)c2c[nH]c3ccccc23)CCCN1` (stereo unspecified), with 243 to 244 °C; and `COC(=O)[C@@H](Cc1ccccc1)NC(=O)OCc1cc2cc(-c3ccsc3)ccc2o1`, with 105 to 106 °C; and `CCOC(=O)/C=C/c1c[nH]c(-c2cccs2)c1`, with 104 to 105 °C. Then `CCS(=O)(=O)Nc1ccc(CN(CC2(c3ccccn3)CCCCC2)C(=O)Nc2c(C(C)C)cccc2C(C)C)cc1`, with 209 °C; and `CCCn1nc2c(N)nc3ccccc3c2c1CCCCS(=O)(=O)N(C)C`, with 144 to 146 °C; and `COc1ccc(Sc2cc3c(cc2Cl)C=C(C(=O)O)C(C(F)(F)F)O3)cc1` (stereo unspecified), with 239 to 242 °C.

In the case of `COc1ccc2sc(C(=O)OCc3ccccc3)c(OCc3ccccc3)c2c1`, the melting point fell in the range of 66 to 67 °C. `COc1cc2c(cc1OC)C(C=Cc1ccc([N+](=O)[O-])cc1)=NN(C(C)=O)C(C)C2` (stereo unspecified) showed a melting point of 182 to 184 °C. The result for `COc1ccc(N2CCN(c3ccc(NC(=O)Oc4ccccc4)cn3)CC2)cc1` reads 197 to 198 °C; that for `Cc1[nH]cnc1CSCCNC1=C([N+](=O)[O-])CN(Cc2ccccc2)CN1`, 177 to 180 °C. Then `ClCc1cc2ccccc2c(-c2ccccc2)c1CCl`, with 93 °C.

Consider `CC(C)NC(=O)c1nc(-c2ccccc2F)c(-c2ccc(=O)n(C(C)C)n2)s1`, for which the melting point is 129 to 130 °C.

`CSc1cccc2c1CCn1cc(-c3ccccc3)nc1C2OC1CCN(C)CC1` (stereo unspecified) showed a melting point of 134 °C. The result for `CC1(C)COCC(C)(C)N1N=O` reads 47 °C. Then `Cc1cc(F)ccc1-c1ccc(S(=O)(=O)N2c3ccccc3CC2C(=O)NCc2ccccc2NCCC(=O)O)cc1` (stereo unspecified), with 118 to 126 °C; and `CCCN=C(N)Nc1ccnc(SCCCC(=N)NC#N)n1`, with 210 to 215 °C.

Molecule `O=[N+]([O-])C1(Cc2ccccc2)CN(Cc2ccccc2)CCN(Cc2ccccc2)C1` returned a melting point of 66 to 69 °C.

`COc1ccc(-c2ccc3c(c2)C(C)(C)OC(=O)N3)cc1F` gave a melting point of 210 to 211 °C. The result for `CCCC(O)P(=O)(O)CCCN` (stereo unspecified) reads 188 °C; that for `COc1ccc(-n2cc(CCC(=O)NS(C)(=O)=O)c(-c3ccc(Cl)c(F)c3)n2)cc1Cl`, 211 to 212 °C; that for `COc1ccccc1C1=CC(N2CCN(Cc3ccc(C)cc3)CC2)=NC12C=CC(=O)C=C2`, 147 °C. The result for `O=C1N(CC2CCCO2)c2ccccc2C12COc1c[nH]c(=O)cc12` (stereo unspecified) reads greater than 250 °C; that for `Clc1cccc(Nc2nccc(-c3ccncc3)n2)c1`, 167 to 168 °C. The result for `C=CCN(CC=C)Cc1noc(-c2ncn3c2CN(C)C(=O)c2ccccc2-3)n1` reads 203 to 205 °C; that for `O=C(Nc1cccc(C(F)(F)F)c1F)c1ccccc1[N+](=O)[O-]`, 156 to 157 °C. In turn, `CC(=O)OCC(C)(C)c1ccc(S(=O)(=O)Nc2ncnc(Cl)c2-c2ccc(C)cc2)cc1` yielded a melting point of 188 to 189 °C. The result for `CNc1nc(C(=O)O)ccc1C(=O)OC` reads 152 to 153 °C. The result for `CC(C)N1CC(CO)C(c2ccccc2)(c2ccccc2)C1=O` (stereo unspecified) reads 159 to 161 °C. Turning to `CCSCCn1c(=N)sc2cc(C(F)(F)F)ccc21`, the melting point was found to be 50 °C. The result for `Clc1cccc(N2CCC3CCc4cnccc4C3=N2)c1` (stereo unspecified) reads 152 to 155 °C; that for `Cn1nc(C(=O)NCc2ccc(Cl)cc2)c(=O)c2cc(C#CCO)ccc21`, 229 to 231 °C; that for `CCOC(=O)Cc1ccc(NC(=O)Nc2ccccc2Br)c(OC)n1`, 160 to 163 °C. The result for `CC1(C)C=C(c2c(N)c(=O)c2=O)c2cc(C#N)ccc2O1` reads greater than 250 °C; that for `CC(=O)c1ccc2c(c1)CCCS2`, 49.5 to 50.5 °C; that for `COC(=O)CC(c1ccc(OC)c(OC)c1)N1C(=O)c2ccccc2C1=O` (stereo unspecified), 114 to 116 °C. The result for `Cc1cc(C(=O)NCOC(=O)CO)ncc1C(c1cc(F)ccc1F)S(=O)(=O)c1ccc(F)cc1` (stereo unspecified) reads 84 °C; that for `CCOC(=O)C(F)=C(C)NC(=O)Nc1cc(C(=O)OC(C)C)c(Cl)cc1F`, 150 to 152 °C; that for `CC(C)(CO)Nc1nc(SCc2cccc(Oc3ccccc3)c2)nc2nc(N)sc12`, 126 to 130 °C. Take `COC1=C(C)C(C)(F)C(C(=O)c2ccccc2)C=C1` (stereo unspecified): the melting point is 59 to 61 °C.

Consider `CN(C)c1ccc2c3c(cccc13)C(=O)c1ccccc1-2`, for which the melting point was 125 to 127 °C. Then `CCc1cn(C(C)C(=O)N(C)C)nc1-c1ccccc1Cl` (stereo unspecified), with 74 to 76 °C; and `N#CC(C(=O)Nc1ccccc1)C(=O)c1nn(-c2ccccc2)c2c1COc1ccccc1-2` (stereo unspecified), with 280 to 282 °C; and `CC(Cl)c1nnc2n1-c1ccc(Cl)cc1C(c1ccccc1)=NC2` (stereo unspecified), with 154 to 156 °C.

`COc1cc(C(C)C)ccc1C1COc2c(C)c(C)c(N)c(C)c21` (stereo unspecified) yielded a melting point of 120 to 121 °C. The result for `CCOC(=O)c1c(Cl)nc2cscc2c1Cl` reads 79 °C.

Regarding `CC(C)=CCN1[C@H](C)Cn2c(=S)[nH]c3cccc(c32)[C@@H]1C` (relative stereo), the melting point was determined as 138 °C.

In turn, `COc1ccc(C(=O)Cc2ncccc2C(=O)O)cc1` gave a melting point of 158 to 163 °C. Then `COc1cc2[nH]c(N(C)Cc3cccc(N4CCCC4=O)c3)nc(=O)c2c(OC)c1OC`, with 166 °C; and `CCCN(CCC)C(=O)CNc1nc(-c2ccccc2)nc(C)c1C`, with 79 to 80 °C. Turning to `O=C1COc2cc(F)c(F)cc2N1`, the melting point lay within 214 to 219 °C. Take `CCC(c1oc2ccccc2c(=O)c1-c1cccc(F)c1)n1nc(-c2ccc3c(C)n[nH]c3c2)c2c(N)ncnc21` (stereo unspecified): the melting point lay within 268 to 270 °C.

With `OC1CSC(Oc2ccc(-c3cccnc3)nc2Cl)C(O)C1O` (stereo unspecified), the melting point was found to be 180 °C.

As to `Cc1cc(-c2cccc(Cl)c2)nn2c(C)nnc12`, the melting point fell in the range of 194 to 196 °C. The result for `CC(CNc1cccc(C(F)(F)F)c1)Nc1cccc(C(F)(F)F)c1` (stereo unspecified) reads 116 to 120 °C. Turning to `CC(C)(C)OC(=O)CN1CC(c2ccco2)SCC(N2C(=O)c3ccccc3C2=O)C1=O` (stereo unspecified), the melting point was in the range of 158 to 161 °C. `CCn1cc(C(=O)O)c(=O)c2cc(F)c(N3CCNC(c4ccoc4)C3)cc21` (stereo unspecified) returned a melting point of 202 to 204 °C. The molecule `COc1cc(COc2nn(CCO)cc2C=O)ccc1OCc1nc(-c2ccco2)oc1C` registered a melting point of 149 to 150 °C. The result for `CC(C)n1nc(-c2sc(NC(=O)c3ccc(CNCCCN(C)C)cc3)nc2-c2ccccc2)ccc1=O` reads 108 to 110 °C; that for `COC(=O)COc1ccc(NC(=O)c2cc(F)cc(N3CCC(C)CC3)c2)c2ccccc12`, 50 to 51 °C; that for `C/C(=C\c1ccc(NC(=O)c2cc([Si](C)(C)C)cc([Si](C)(C)C)c2)cc1F)C(=O)O`, 213 to 215 °C. Then `Cc1cc(C(=O)N2CCC3(CC2)CSC2=C(O3)c3ccccc3C(=O)C2=O)nn1C`, with 184 to 185 °C; and `CCOC(=O)c1ccc(-c2ccc(-c3ccccc3)cc2-c2ccc3c(c2)C(C)(C)CCC3(C)C)cc1O`, with less than 70 °C; and `O=[N+]([O-])c1oc2ccc(-c3ccc(CCO)cc3)cc2c1-c1ccccc1`, with 86 to 87 °C. Molecule `CN1C(=O)CC[C@]2(C)c3ccc(-c4ccccc4Cl)cc3CC[C@@H]12` returned a melting point of 111 to 120 °C.

On to `Cc1c(C(F)(F)F)cnn(-c2ncc(Cl)cc2F)c1=O`, for which the melting point lay within 91 to 93 °C.

`O=C1/C(=C/c2ccccc2)N2CCC1CC2` returned a melting point of 130 to 132 °C. In turn, `CN(CC1CCCCN1CC(=O)N1c2ccccc2NC(=O)c2ccccc21)C1CCCCC1` (stereo unspecified) yielded a melting point of 146 to 148 °C.

As to `CN1C(=O)Nc2ccccc2C12NC(=O)NC2=O` (stereo unspecified), the melting point is greater than 280 °C. Then `Cc1ncc(C(O)=S)cc1OC(C)C`, with 154 to 155 °C; and `CCOC(=O)c1cnc2n(c1=O)C(C)CCC2=NNc1ccc(Cl)cc1` (stereo unspecified), with 177 to 178 °C; and `O=CC1CCSc2[nH]c3ccccc3c21` (stereo unspecified), with 60 to 65 °C. Then `CCC(C)NC(C(=O)O)C(C)C` (stereo unspecified), with greater than 300 °C; and `CN(C)C(=O)C1(N2C(=O)c3cccc(Cl)c3C2=O)CCCCC1`, with 135 to 137 °C; and `CCCCc1ncc(/C=C(\Cc2cccs2)C(=O)O)n1Cc1cccc(Cl)c1Cl`, with 184 to 185 °C.

`CCOC(=O)c1c(N)cc(C(F)(F)F)nc1C(F)(F)F`: the melting point lay in the range of 43 to 45 °C.
